Laboratory results: patent publication US20100278983A1, “COMPOSITION OF MONASCUS FERMENTED PRODUCT WITH A FUNCTION THAT REDUCES BODY FATNESS FORMATION AND THE METHOD FOR MANUFACTURING THE SAME” (SUNWAY BIOTECH CO., LTD., priority 2009, published 2010)

How the values were obtained:
[1] = test system: 3T3-L1 preadipocyte; test: Proliferation rate of 3T3-L1 preadipocyte; assay type: cell-based; conditions: for decrease of proliferation rate of 3T3-L1 preadipocyte: 24 hours
Description: (§1) 3T3-L1 preadipocyte is used as the experimental material in the in vitro cellular experiments to probe into the effects of Monascus fermented product on proliferation and differentiation in preadipocyte.

[2] = Body weight of rats fed with high-fat diet and Monascus fermented product; assay type: in vivo, male Wister rats; conditions: after 6 weeks of feeding, dosage not stated
Description: In order to estimate the effects of Monascus fermented product on the decrease in body fat mass development and body weight-lowering, the present invention carried out in vitro cellular experiments and in vivo experiments. 3T3-L1 preadipocyte is used as the experimental material in the in vitro cellular experiments to probe into the effects of Monascus fermented product on proliferation and differentiation in preadipocyte. Male Wister rates are used as the experimental animals in the in vivo experiments and fed with high-fat diet and Monascus fermented products at the same time, then determine the effects of the decrease in body fat mass development by many evaluation indicators after […] of breeding.
Rats are randomly divided into to 9 groups, each include 8 rats, on the principles that the initial average weights of rats are unanimous. Rats are fed with high-fat diet and Monascus fermented product at the same time in experiments and then sacrificed for every analyses after 6 weeks of feeding. […]

[3] = test system: 3T3-L1 preadipocyte; test: Differentiation rate of 3T3-L1 preadipocyte (content of triglyceride, TG); assay type: cell-based; conditions: Mus musculus; for inhibition at 125 µg/mL: 0.125 mg/mL
Description: as §1
In this research, 50, 100 and 200 μg/mL of water extracts of red mold rice and red mold dioscorea are added to 3T3-L1 preadipocyte respectively during differentiation induction and then the cells are collected to be analyzed the content of triglyceride after 8 days of differentiation. TG synthesis is an indicator for the differentiation late phase of the fat cells, thus the TG content in cells are usually used to determine the differentiation rate.

Structure (SMILES) | decrease of proliferation rate of 3T3-L1 preadipocyte ([1]; 1.25 μg/mL) [%] | decrease of proliferation rate of 3T3-L1 preadipocyte ([1]; 2.5 μg/mL) [%] | decrease of proliferation rate of 3T3-L1 preadipocyte ([1]; 5 μg/mL) [%] | decrease of proliferation rate of 3T3-L1 preadipocyte ([1]; 10 μg/mL) [%] | Final body weight [2] [g] | Increment of body weight [2] [g] | inhibition at 125 µg/mL [3] [%] | inhibition at 250 µg/mL ([3]; 0.25 mg/mL) [%] | inhibition at 1000 µg/mL ([1]; Mus musculus, 3T3-L1, 1 mg/mL, 72 hours) [%]
CC[C@H](C)C(=O)O[C@H]1C[C@@H](C)C=C2C=C[C@H](C)[C@H](CC[C@@H]3C[C@@H](O)CC(=O)O3)[C@H]21 [Monacolin K] | 13.0 | 18.2 | 23.9 | 28.6 | 472.4 | 141.1 | – | – | –
C/C=C/C1=CC2=C(CO1)C(=O)[C@]1(C)OC(=O)[C@H](C(=O)CCCCCCC)[C@H]1C2 [ankaflavin] | – | – | – | – | – | – | 41.2 | 29.9 | –
C/C=C/C1=CC2=C(CO1)C(=O)[C@]1(C)OC(=O)[C@H](C(=O)CCCCC)[C@H]1C2 [monascin] | – | – | – | – | – | – | 31.2 | – | 8
